Where two headings read alike, the source gives them in different places.
Assays:
[1] = tested on: murine respiratory tract tissue; details: mouse, in vivo, 14 days
[2] = 75 mg of GA administered orally; cited from earlier work
SARS-CoV = details: culture cells; cited from earlier work
[3] = Pharmacokinetic study in healthy volunteers, inhaled route by nebulizer; type: in vivo, human; details: GA by inhalation, FIGS. 13 and 14
Procedure: Alternative tests were conducted to verify the synergistic behavior of the compositions of interest. For this reason, the results of pharmacokinetic studies are described and disclosed herein below. The study was based on the application of different versions of the herein claimed pharmaceutical composition to healthy volunteers by the inhaled route of administration, by means of a nebulizer device. The volunteers were given the drug once every 24 hours for three days. In addition, blood samples were taken from them at different time points. These samples were analyzed to quantify glycyrrhizinic acid (GA) and Enoxolone (EN) contents through the mass coupled HPLC methodology. […]
Blood samples of 5 mL were taken from each of the individuals at 30 minutes and at 1, 2, 3, 6, 12, 24, 48, 72 and 96 hours after drug administration. Then, the AG and EN concentrations in these blood samples were determined using the mass coupled HPLC methodology. In all cases, both components were quantified.
The following tables denote pharmacokinetic results (Area Under the Curve (AUC)) of the two drugs assessed (GA and EN). The Area Under the Curve (AUC) is a parameter related to the drug quantity to which the body has been exposed. […] The AUC was calculated using the R programming language within the “PK” software bundle. […]

[4] = tested on: murine respiratory tract tissue; assay: Toxicity and irritability assay by the inhaled route in murine rodents, histopathological lesion score; details: for Degenerative: Alveolar lesion score / Degenerative: Bronchial lesion score / Degenerative: Bronchiolar lesion score / Fibrosis: Alveolar Septa lesion score / Fibrosis: Peribronchial lesion score / Fibrosis: Peribronchiolar lesion score / Inflammatory: Bronchiolitis lesion score / Inflammatory: Bronchitis lesion score / Inflammatory: Hyaline Membrane lesion score / Inflammatory: Interstitial Pneumonia lesion score / Inflammatory: Vasculitis lesion score / Necrosis: Alveolar lesion score / Necrosis: Bronchial lesion score / Necrosis: Bronchiolar lesion score / Vascular: Alveolar edema lesion score / Vascular: Congestion lesion score / Vascular: Hemorrhage lesion score / Vascular: Interstitial edema lesion score / Vascular: Thrombosis lesion score / TOTAL damage and lesion rating: inhaled 10 min/day for 14 days; for Degenerative: Alveolar lesion score / Degenerative: Bronchial lesion score / Degenerative: Bronchiolar lesion score / Fibrosis: Alveolar Septa lesion score / Fibrosis: Peribronchial lesion score / Fibrosis: Peribronchiolar lesion score / Inflammatory: Bronchiolitis lesion score / Inflammatory: Bronchitis lesion score / Inflammatory: Hyaline Membrane lesion score / Inflammatory: Interstitial Pneumonia lesion score / Inflammatory: Vasculitis lesion score / Necrosis: Alveolar lesion score / Necrosis: Bronchial lesion score / Necrosis: Bronchiolar lesion score / Vascular: Alveolar edema lesion score / Vascular: Congestion lesion score / Vascular: Hemorrhage lesion score / Vascular: Interstitial edema lesion score / Vascular: Thrombosis lesion score: score 0-5; for TOTAL damage and lesion rating: sum of scores

**Q.** Which “Degenerative: Alveolar lesion score” value [1] does the source give for `CC1(C)[C@@H](O)CC[C@]2(C)[C@H]3C(=O)C=C4[C@@H]5C[C@@](C)(C(=O)O)CC[C@]5(C)CC[C@@]4(C)[C@]3(C)CC[C@@H]12` [EN, 18-β glycyrrhetinic acid] here?
**A.** Its value is 0.

**Q.** What about the “Fibrosis: Alveolar Septa lesion score” value [1] of the same compound?
**A.** The value was 0.

**Q.** What about the “Fibrosis: Peribronchial lesion score” value [1] of the same compound?
**A.** The value was 0.

**Q.** What about the “Fibrosis: Peribronchiolar lesion score” value [1] of the same compound?
**A.** Its value is 0.

**Q.** What about the “Inflammatory: Bronchiolitis lesion score” value [1] of the same compound?
**A.** Its value is 0.

**Q.** And the “Inflammatory: Bronchitis lesion score” value [1]?
**A.** The value was 0.

**Q.** What about the “Inflammatory: Hyaline Membrane lesion score” value [1] of the same compound?
**A.** The value was 0.

**Q.** And the “Inflammatory: Vasculitis lesion score” value [1]?
**A.** The value was 0.

**Q.** What about the “Necrosis: Alveolar lesion score” value [1] of the same compound?
**A.** The value was 0.

**Q.** And the “Necrosis: Bronchial lesion score” value [1]?
**A.** Its value is 0.

**Q.** What about the “Necrosis: Bronchiolar lesion score” value [1] of the same compound?
**A.** Its value is 0.

**Q.** What about the “Vascular: Alveolar edema lesion score” value [1] of the same compound?
**A.** Its value is 0.

**Q.** What about the “Vascular: Congestion lesion score” value [1] of the same compound?
**A.** The value was 2.

**Q.** What about the “Vascular: Hemorrhage lesion score” value [1] of the same compound?
**A.** The value was 1.

**Q.** What about the “Vascular: Thrombosis lesion score” value [1] of the same compound?
**A.** The value was 0.

**Q.** With `CC1(C)[C@@H](O[C@H]2O[C@H](C(=O)O)[C@@H](O)[C@H](O)[C@H]2O[C@@H]2O[C@H](C(=O)O)[C@@H](O)[C@H](O)[C@H]2O)CC[C@]2(C)[C@H]3C(=O)C=C4[C@@H]5C[C@@](C)(C(=O)O)CC[C@]5(C)CC[C@@]4(C)[C@]3(C)CC[C@@H]12` [GA, glycyrrhizic acid] as the compound, how does the “EN concentration obtained by oral administration” value [2] read?
**A.** Its value is 200.3 ng/mL.

**Q.** What about the “Inhibition of SARS-CoV replication” value (SARS-CoV) of the same compound?
**A.** Its value is “prevented virus replication in culture cells”.

**Q.** And the “Time of initial peak value” [3]?
**A.** Its value is 60 min.

**Q.** And the “Degenerative: Alveolar lesion score” value ([4]; High dosage)?
**A.** The value was 0.

**Q.** What about the “Degenerative: Bronchial lesion score” value ([4]; High dosage) of the same compound?
**A.** The value was 1.

**Q.** And the “Degenerative: Bronchiolar lesion score” value ([4]; High dosage)?
**A.** Its value is 1.

**Q.** What about the “Fibrosis: Alveolar Septa lesion score” value ([4]; High dosage) of the same compound?
**A.** The value was 0.

**Q.** What about the “Fibrosis: Peribronchial lesion score” value ([4]; High dosage) of the same compound?
**A.** The value was 0.

**Q.** What about the “Fibrosis: Peribronchiolar lesion score” value ([4]; High dosage) of the same compound?
**A.** Its value is 0.

**Q.** And the “Inflammatory: Bronchiolitis lesion score” value ([4]; High dosage)?
**A.** Its value is 0.

**Q.** What about the “Inflammatory: Bronchitis lesion score” value ([4]; High dosage) of the same compound?
**A.** The value was 0.

**Q.** What about the “Inflammatory: Hyaline Membrane lesion score” value ([4]; High dosage) of the same compound?
**A.** Its value is 0.

**Q.** What about the “Inflammatory: Interstitial Pneumonia lesion score” value ([4]; High dosage) of the same compound?
**A.** The value was 3.5.

**Q.** And the “Inflammatory: Vasculitis lesion score” value ([4]; High dosage)?
**A.** Its value is 0.

**Q.** And the “Necrosis: Alveolar lesion score” value ([4]; High dosage)?
**A.** The value was 0.

**Q.** What about the “Necrosis: Bronchial lesion score” value ([4]; High dosage) of the same compound?
**A.** The value was 1.

**Q.** What about the “Necrosis: Bronchiolar lesion score” value ([4]; High dosage) of the same compound?
**A.** The value was 0.

**Q.** And the “Vascular: Alveolar edema lesion score” value ([4]; High dosage)?
**A.** Its value is 0.

**Q.** What about the “Vascular: Congestion lesion score” value ([4]; High dosage) of the same compound?
**A.** The value was 2.

**Q.** What about the “Vascular: Hemorrhage lesion score” value ([4]; High dosage) of the same compound?
**A.** Its value is 2.

**Q.** What about the “Vascular: Interstitial edema lesion score” value ([4]; High dosage) of the same compound?
**A.** Its value is 2.

**Q.** What about the “Vascular: Thrombosis lesion score” value ([4]; High dosage) of the same compound?
**A.** Its value is 0.

**Q.** And the “TOTAL damage and lesion rating” value ([4]; High dosage)?
**A.** Its value is 12.5.

**Q.** What about the “Degenerative: Alveolar lesion score” value ([4]; Low dosage) of the same compound?
**A.** Its value is 0.

**Q.** What about the “Degenerative: Bronchial lesion score” value ([4]; Low dosage) of the same compound?
**A.** The value was 0.5.

**Q.** What about the “Degenerative: Bronchiolar lesion score” value ([4]; Low dosage) of the same compound?
**A.** Its value is 0.5.

**Q.** What about the “Fibrosis: Alveolar Septa lesion score” value ([4]; Low dosage) of the same compound?
**A.** The value was 0.

**Q.** What about the “Fibrosis: Peribronchial lesion score” value ([4]; Low dosage) of the same compound?
**A.** The value was 0.

**Q.** And the “Fibrosis: Peribronchiolar lesion score” value ([4]; Low dosage)?
**A.** The value was 0.

**Q.** And the “Inflammatory: Bronchiolitis lesion score” value ([4]; Low dosage)?
**A.** Its value is 0.

**Q.** What about the “Inflammatory: Bronchitis lesion score” value ([4]; Low dosage) of the same compound?
**A.** Its value is 0.

**Q.** What about the “Inflammatory: Hyaline Membrane lesion score” value ([4]; Low dosage) of the same compound?
**A.** The value was 0.

**Q.** What about the “Inflammatory: Interstitial Pneumonia lesion score” value ([4]; Low dosage) of the same compound?
**A.** The value was 3.

**Q.** And the “Inflammatory: Vasculitis lesion score” value ([4]; Low dosage)?
**A.** The value was 0.

**Q.** And the “Necrosis: Alveolar lesion score” value ([4]; Low dosage)?
**A.** The value was 0.

**Q.** What about the “Necrosis: Bronchial lesion score” value ([4]; Low dosage) of the same compound?
**A.** Its value is 0.

**Q.** And the “Necrosis: Bronchiolar lesion score” value ([4]; Low dosage)?
**A.** The value was 0.

**Q.** And the “Vascular: Alveolar edema lesion score” value ([4]; Low dosage)?
**A.** The value was 0.

**Q.** And the “Vascular: Congestion lesion score” value ([4]; Low dosage)?
**A.** Its value is 2.

**Q.** What about the “Vascular: Hemorrhage lesion score” value ([4]; Low dosage) of the same compound?
**A.** Its value is 3.

**Q.** And the “Vascular: Interstitial edema lesion score” value ([4]; Low dosage)?
**A.** The value was 1.

**Q.** What about the “Vascular: Thrombosis lesion score” value ([4]; Low dosage) of the same compound?
**A.** The value was 0.

**Q.** What about the “TOTAL damage and lesion rating” value ([4]; Low dosage) of the same compound?
**A.** Its value is 10.

**Q.** And the “Effect on basal lesions (in words)” value ([4]; increases according to the amount of administered drug)?
**A.** The value was “generation of additional lesions to the basal lesions”.

From US11931372B2, “Pharmaceutical composition containing pentacyclic triterpenoids” (SPV TIMSER, S.A.P.I. DE C.V., priority 2021, dated 2024)
